molecular target: T1, matriptase (Homo sapiens, UniProt Q9Y5Y6); experiment: Determination of Ki values for the inhibition of matriptase (chromogenic substrate CH3SO2-D-HHT-Gly-Arg-pNA); assay type: biochemical; conditions: 25° C, pH 8.0, Dixon method, average of three determinations
T1 construct: Met-Lys-(His)6 (N, cleaved yes); made in house; host or cells: Escherichia coli BL21 (DE3), vector pET24
T1 sequence (Q9Y5Y6 615-854 limits assumed): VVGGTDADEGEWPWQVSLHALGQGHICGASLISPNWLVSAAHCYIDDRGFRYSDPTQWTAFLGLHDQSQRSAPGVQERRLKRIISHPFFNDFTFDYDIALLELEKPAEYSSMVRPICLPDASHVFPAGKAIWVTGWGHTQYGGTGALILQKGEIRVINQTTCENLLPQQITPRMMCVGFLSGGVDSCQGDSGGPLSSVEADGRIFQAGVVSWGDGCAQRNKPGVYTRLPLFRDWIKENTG
Experimental: Preparation of the Catalytic Domain of Matriptase
The steps were in detail:
Activation: Since a correctly processed N terminus is a precondition for the activity of serine proteases, it was necessary to delete the peptide MK(His)6 to activate the refolded matriptase. For this purpose, the refolding mixture was incubated with 2.5 mU per 50 μg of protein of activated DAPase™ (Qiagen) at 30° C. for 2 h, and the activated matriptase was separated from the non-activated matriptase and the DAPase by metal chelate chromatography.
The proteolytic activity was detected by cleavage of the chromogenic substrate Pefachrome tPA (Pentapharm).

Molecule | Ki
N=C(N)CC(=O)N1CCN(C(=O)C(Cc2cccc(C(=N)N)c2)NS(=O)(=O)c2ccc(C3CCCCC3)cc2)CC1 (stereo not drawn) [Compound 61] | 380 nM
N=C(N)c1cccc(CC(NS(=O)(=O)Cc2ccc3ccccc3c2)C(=O)N2CCN(C(=O)CCN)CC2)c1 (stereo not drawn) [Compound 25] | 2400 nM
N=C(N)c1cccc(CC(NC(=O)CNS(=O)(=O)c2ccc(S(=O)(=O)N3CCOCC3)cc2)C(=O)N2CCN(C(=O)CCN)CC2)c1 (stereo not drawn) [Compound 50] | 3500 nM
Cc1c(C)c(S(=O)(=O)NC(Cc2cccc(C(=N)N)c2)C(=O)N2CCN(C(=O)CCN)CC2)c(C)c2c1OC(C)(C)C2 (stereo not drawn) [Compound 23] | 3300 nM
N=C(N)NCCC(=O)N1CCN(C(=O)[C@H](Cc2cccc(C(=N)N)c2)NS(=O)(=O)c2ccc3cc4ccccc4cc3c2)CC1 [Compound 11, anthracenesulfonyl-Phe(3-Am)-Pzd-CO—CH2—CH2-guanidino] | 44 nM
CC(C)c1cc(C(C)C)c(S(=O)(=O)NC(Cc2cccc(C(=N)N)c2)C(=O)N2CCN(C(=O)C3CCN(C(=O)OC(C)(C)C)CC3)CC2)c(C(C)C)c1 (stereo not drawn) [Compound 65] | 830 nM
N=C(N)c1cccc(CC(NS(=O)(=O)c2ccc(C3CCCCC3)cc2)C(=O)N2CCNCC2)c1 (stereo not drawn) [Compound 58] | 550 nM
N=C(N)c1cccc(CC(NS(=O)(=O)c2ccc(C3CCCCC3)cc2)C(=O)N2CCN(C(=O)CCN)CC2)c1 (stereo not drawn) [Compound 17] | 140 nM
N=C(N)NCCC1CCN(C(=O)C(Cc2cccc(C(=N)N)c2)NS(=O)(=O)c2cccc3ccccc23)CC1 (stereo not drawn) [Compound 41] | 74 nM
N=C(N)c1cccc(C[C@H](NS(=O)(=O)c2ccc3ccccc3c2)C(=O)N2CCC(CCN)CC2)c1 [Compound 36, 2-Nas-Phe(3-Am) 4(aminoethyl)piperidide] | 110 nM
N=C(N)c1cccc(CC(NC(=O)CNS(=O)(=O)c2ccc3ccccc3c2)C(=O)N2CCN(C(=O)CCN)CC2)c1 (stereo not drawn) [Compound 40] | 7200 nM
N=C(N)NCCC(=O)N1CCN(C(=O)C(Cc2cccc(C(=N)N)c2)NS(=O)(=O)Cc2ccc3ccccc3c2)CC1 (stereo not drawn) [Compound 26] | 400 nM
N=C(N)c1cccc(CC(NS(=O)(=O)c2ccc(C3CCCCC3)cc2)C(=O)N2CCN(C(=O)C3CCNCC3)CC2)c1 (stereo not drawn) [Compound 60] | 310 nM
N=C(N)c1cccc(CC(NS(=O)(=O)c2ccc(-c3ccccc3)cc2)C(=O)N2CCN(C(=O)CCN)CC2)c1 (stereo not drawn) [Compound 19] | 600 nM
CC(C)(C)c1ccc(S(=O)(=O)NC(Cc2cccc(C(=N)N)c2)C(=O)N2CCN(C(=O)CCNC(=N)N)CC2)cc1 (stereo not drawn) [Compound 22] | 200 nM
CC(C)c1cc(C(C)C)c(S(=O)(=O)NC(Cc2cccc(C(=N)N)c2)C(=O)N2CCN(C(=O)CCCNC(=N)N)CC2)c(C(C)C)c1 (stereo not drawn) [Compound 7] | 56 nM
N=C(N)NCCC1CCN(C(=O)C(Cc2cccc(C(=N)N)c2)NS(=O)(=O)CCc2cccc3ccccc23)CC1 (stereo not drawn) [Compound 43] | 180 nM
N=C(N)c1cccc(CC(NS(=O)(=O)c2ccc(C3CCCCC3)cc2)C(=O)N2CCC(C(=O)N3CCN(C(=N)N)CC3)CC2)c1 (stereo not drawn) [Compound 54] | 32 nM
N=C(N)c1cccc(CC(NS(=O)(=O)c2ccc(C3CCCCC3)cc2)C(=O)N2CCC(CCN)CC2)c1 (stereo not drawn) [Compound 45] | 140 nM
N=C(N)c1cccc(CC(NS(=O)(=O)c2cccc3c2CCCC3)C(=O)N2CCN(C(=O)CCN)CC2)c1 (stereo not drawn) [Compound 16] | 990 nM
N=C(N)NCCC(=O)N1CCN(C(=O)C(Cc2cccc(C(=N)N)c2)NC(=O)CNS(=O)(=O)c2ccc(S(=O)(=O)N3CCOCC3)cc2)CC1 (stereo not drawn) [Compound 51] | 890 nM
N=C(N)c1cccc(CC(NS(=O)(=O)c2ccc3c(c2)CCCC3)C(=O)N2CCN(C(=O)CCN)CC2)c1 (stereo not drawn) [Compound 14] | 400 nM

Molecule | Ki
N=C(N)c1cccc(CC(NC(=O)CNS(=O)(=O)c2ccc3ccccc3c2)C(=O)N2CCC(C(=O)NCCCNC(=O)OCc3ccccc3)CC2)c1 (stereo not drawn) [Compound 47] | 3900 nM
N=C(N)c1cccc(CC(NS(=O)(=O)c2ccc3c(c2)C(=O)c2ccccc2C3=O)C(=O)N2CCN(C(=O)CCN)CC2)c1 (stereo not drawn) [Compound 2] | 160 nM
CC(C)(C)c1ccc(S(=O)(=O)NC(Cc2cccc(C(=N)N)c2)C(=O)N2CCN(C(=O)CCN)CC2)cc1 (stereo not drawn) [Compound 21] | 470 nM
N=C(N)c1cccc(CC(NC(=O)CNS(=O)(=O)c2ccc3ccccc3c2)C(=O)N2CCC(CCN)CC2)c1 (stereo not drawn) [Compound 44] | 21000 nM
N=C(N)c1cccc(CC(NS(=O)(=O)CCc2cccc3ccccc23)C(=O)N2CCC(CCN)CC2)c1 (stereo not drawn) [Compound 42] | 360 nM
N=C(N)CCNC(=O)C1CCN(C(=O)C(Cc2cccc(C(=N)N)c2)NC(=O)CNS(=O)(=O)c2ccc3ccccc3c2)CC1 (stereo not drawn) [Compound 49] | 160 nM
N=C(N)c1cccc(C[C@H](NS(=O)(=O)c2ccc3cc4ccccc4cc3c2)C(=O)N2CCN(C(=O)CCN)CC2)c1 [Compound 10, anthracenesulfonyl-Phe(3-Am)-Pzd-β-Ala] | 270 nM
N=C(N)c1cccc(CC(NS(=O)(=O)c2ccc(C3CCCCC3)cc2)C(=O)N2CCN(C(=N)N)CC2)c1 (stereo not drawn) [Compound 55] | 980 nM
N=C(N)c1cccc(CC(NS(=O)(=O)c2ccc3ccccc3c2)C(=O)N2CC(C(=O)N3CCNCC3)C2)c1 (stereo not drawn) [Compound 66] | 13000 nM
N=C(N)c1cccc(CC(NS(=O)(=O)c2ccc3ccccc3c2)C(=O)N2CCN(C(=O)CCN)CC2)c1 (stereo not drawn) [Compound 12] | 830 nM
N=C(N)CCNC(=O)C1CCN(C(=O)C(Cc2cccc(C(=N)N)c2)NS(=O)(=O)c2ccc3ccccc3c2)CC1 (stereo not drawn) [Compound 35] | 160 nM
N=C(N)c1cccc(CC(NS(=O)(=O)c2ccc3ccccc3c2)C(=O)N2CC(C(=O)N3CCN(C(=N)N)CC3)C2)c1 (stereo not drawn) [Compound 67] | 3400 nM
2,4,6-triisopropylphenylsulfonyl-Phe(3Am)-iNip-NH—CH2—CH2-guanidino [Compound 34] | 140 nM
N=C(N)NCCC1CCN(C(=O)C(Cc2cccc(C(=N)N)c2)NC(=O)CNS(=O)(=O)c2ccc3c(c2)Cc2ccccc2C3)CC1 (stereo not drawn) [Compound 68] | 38 nM
N=C(N)NCCNC(=O)C1CCN(C(=O)C(Cc2cccc(C(=N)N)c2)NS(=O)(=O)c2ccc3c(c2)C(O)c2ccccc2C3O)CC1 (stereo not drawn) [Compound 32] | 9.8 nM
N=C(N)c1cccc(CC(NS(=O)(=O)c2ccc3c(c2)C(=O)c2ccccc2C3=O)C(=O)N2CCN(C(=O)C3CNC3)CC2)c1 (stereo not drawn) [Compound 27] | 460 nM
N=C(N)c1cccc(CC(NS(=O)(=O)c2cccc3ccccc23)C(=O)N2CCC(CCN)CC2)c1 (stereo not drawn) [Compound 39] | 170 nM
N=C(N)c1cccc(CC(NC(=O)CNS(=O)(=O)c2ccc3ccccc3c2)C(=O)N2CCC(C(=O)NCCCN)CC2)c1 (stereo not drawn) [Compound 48] | 360 nM
N=C(N)NCCC(=O)N1CCN(C(=O)C(Cc2cccc(C(=N)N)c2)NS(=O)(=O)c2ccc3c(c2)CCCC3)CC1 (stereo not drawn) [Compound 15] | 300 nM
2,4,6-triisopropylphenylsulfonyl-Phe(3-Am)-iNip-DAE-H [Compound 3] | 53 nM
N=C(N)CC(=O)N1CCN(C(=O)C(Cc2cccc(C(=N)N)c2)NS(=O)(=O)c2ccc3ccccc3c2)CC1 (stereo not drawn) [Compound 62] | 1100 nM

system: matriptase-expressing prostate carcinoma cells (PC-3); experiment: Inhibition of proHGF-induced cell scattering (scatter assay); assay type: cell-based; conditions: proHGF-stimulated; inhibitor 3 μM; 6 days; FIG. 2
Source text: Because of its ability to induce the detachment of cells from an isolated assemblage and the dissemination of the cells, HGF is also referred to as scatter factor. This function can be detected at the cellular level with the aid of the so-called scatter assay. This entails the cells being seeded and their dissemination stimulated by the addition of HGF being recorded after a defined time. […] It is shown below by way of example for the matriptase inhibitors 37 and 54 that activation of proHGF by cellular matriptase is prevented and the scattering of proHGF-stimulated cells is reduced.
For this purpose, 500 matriptase-expressing prostate carcinoma cells (PC-3) were seeded in each well of a 96-well plate and incubated (37° C., 5% CO2) in 100 μl of medium without fetal calf serum (Nut Mix. F-12, 2% Ultroser HY) overnight, and then the scattering was stimulated by adding proHGF with and without matriptase inhibitors (3 μM). After 6 days, the cells were fixed and stained, and representative sections were photographed at 100× magnification.

Molecule | inhibition of proHGF-induced scattering of PC-3 cells
N=C(N)NCCC1CCN(C(=O)[C@H](Cc2cccc(C(=N)N)c2)NS(=O)(=O)c2ccc3ccccc3c2)CC1.O=C(O)C(F)(F)F.O=C(O)C(F)(F)F [Compound 37, 2-Nas-Phe(3-Am) 4(guanidinoethyl)piperidide] | inhibit the proHGF-induced scattering of PC-3 cells

system: matriptase-expressing colon carcinoma cell line DLD-1; experiment: Inhibition of invasive growth (Matrigel invasion assay); assay type: cell-based; conditions: proHGF-stimulated; inhibitor 30 μM; 48 hours; FIG. 1
Source text: A common test system for invasive growth at the cellular level is the Matrigel invasion assay. This entails cells being applied to an artificial extracellular matrix and investigation of how many cells migrate through the latter within a defined period.
It is shown here by way of example for the matriptase inhibitors 37 and 54 that invasive growth is influenced and the migration of matriptase-expressing colon carcinoma cell line DLD-1 through Matrigel is inhibited:
The wells of a ‘Transwell’ plate were each coated with 10 μg of Matrigel and 160 000 DLD-1 cells (Dexter et al, Cancer Research 39: 1020-1025 (1979)) in 100 μl of medium (RPMI 1640, with 2% Ultroser HY serum substituted) were applied to each, invasive growth was stimulated by adding ProHGF in 400 μl of medium with and without inhibitor (30 μM). After incubation at 37° C. and 5% CO2 for 48 hours, the cells which had migrated through the matrix were fixed, stained and photographed at 100× magnification.

Molecule | inhibition of migration/invasion of DLD-1 cells through Matrigel
N=C(N)NCCC1CCN(C(=O)[C@H](Cc2cccc(C(=N)N)c2)NS(=O)(=O)c2ccc3ccccc3c2)CC1.O=C(O)C(F)(F)F.O=C(O)C(F)(F)F [Compound 37, 2-Nas-Phe(3-Am) 4(guanidinoethyl)piperidide] | inhibited

— patent US7772251B2, “N-sulphonylated amino acid derivatives, method for the production and use thereof” (The Medicines Company (Leipzig) GmbH, priority 2003, dated 2010)
